Experiment in all cases: DSF 100 kinase selectivity screen;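 note: compound tested at 20 µM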
Holding throughout (assay type): binding

Test [1] addresses T1, ~100 representative kinases (Homo sapiens, UniProt O94768).
T1 construct: Recombinant protein kinase domains with a concentration of 2 μM
T1 sequence (O94768 1-372): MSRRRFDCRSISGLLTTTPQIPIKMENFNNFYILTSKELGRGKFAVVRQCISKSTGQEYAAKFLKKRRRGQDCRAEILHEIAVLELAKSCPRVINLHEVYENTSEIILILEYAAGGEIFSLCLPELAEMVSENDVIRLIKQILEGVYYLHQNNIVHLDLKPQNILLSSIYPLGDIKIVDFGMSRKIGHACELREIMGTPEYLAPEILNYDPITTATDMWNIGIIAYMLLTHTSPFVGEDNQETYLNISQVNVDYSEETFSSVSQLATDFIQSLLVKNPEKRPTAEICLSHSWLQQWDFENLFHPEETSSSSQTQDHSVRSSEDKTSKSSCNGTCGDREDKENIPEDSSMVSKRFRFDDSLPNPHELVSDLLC
As to conditions: Protein STK17B; DSF; average of three replicates. In outline: (§1)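 Each kinase domain, at 2 μM, is mixed with 20 μM test compound and SYPRO Orange in Hepes (20 mM, pH 7.5) with 500 mM NaCl. Temperature is then raised at 3°C/min and fluorescence-monitored unfolding yields the melting temperature change, ΔTm in degrees Celsius.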

Test [2] has as its target T2, ~100 representative kinases (Homo sapiens, UniProt O96013).
T2 construct: Recombinant protein kinase domains with a concentration of 2 μM
As to conditions: protein PAK4; average of three replicates. In short, it runs like this: as §1

Test [3] has as its target T3, ~100 representative kinases (Homo sapiens, UniProt P16083).
T3 construct: Recombinant protein kinase domains with a concentration of 2 μM
T3 sequence (P16083 1-231): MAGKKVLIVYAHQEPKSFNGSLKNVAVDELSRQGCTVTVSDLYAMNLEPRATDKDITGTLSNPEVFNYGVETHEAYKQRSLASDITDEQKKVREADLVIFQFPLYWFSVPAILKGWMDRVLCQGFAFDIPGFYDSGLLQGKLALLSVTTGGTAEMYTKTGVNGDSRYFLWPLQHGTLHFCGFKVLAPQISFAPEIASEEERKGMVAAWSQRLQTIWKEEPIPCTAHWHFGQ
As to conditions: protein NQO2; average of three replicates. In outline:
as §1

Test [4] deals with T4, ~100 representative kinases (Homo sapiens, UniProt P54756).
T4 construct: Recombinant protein kinase domains with a concentration of 2 μM
T4 sequence (P54756 25-1037): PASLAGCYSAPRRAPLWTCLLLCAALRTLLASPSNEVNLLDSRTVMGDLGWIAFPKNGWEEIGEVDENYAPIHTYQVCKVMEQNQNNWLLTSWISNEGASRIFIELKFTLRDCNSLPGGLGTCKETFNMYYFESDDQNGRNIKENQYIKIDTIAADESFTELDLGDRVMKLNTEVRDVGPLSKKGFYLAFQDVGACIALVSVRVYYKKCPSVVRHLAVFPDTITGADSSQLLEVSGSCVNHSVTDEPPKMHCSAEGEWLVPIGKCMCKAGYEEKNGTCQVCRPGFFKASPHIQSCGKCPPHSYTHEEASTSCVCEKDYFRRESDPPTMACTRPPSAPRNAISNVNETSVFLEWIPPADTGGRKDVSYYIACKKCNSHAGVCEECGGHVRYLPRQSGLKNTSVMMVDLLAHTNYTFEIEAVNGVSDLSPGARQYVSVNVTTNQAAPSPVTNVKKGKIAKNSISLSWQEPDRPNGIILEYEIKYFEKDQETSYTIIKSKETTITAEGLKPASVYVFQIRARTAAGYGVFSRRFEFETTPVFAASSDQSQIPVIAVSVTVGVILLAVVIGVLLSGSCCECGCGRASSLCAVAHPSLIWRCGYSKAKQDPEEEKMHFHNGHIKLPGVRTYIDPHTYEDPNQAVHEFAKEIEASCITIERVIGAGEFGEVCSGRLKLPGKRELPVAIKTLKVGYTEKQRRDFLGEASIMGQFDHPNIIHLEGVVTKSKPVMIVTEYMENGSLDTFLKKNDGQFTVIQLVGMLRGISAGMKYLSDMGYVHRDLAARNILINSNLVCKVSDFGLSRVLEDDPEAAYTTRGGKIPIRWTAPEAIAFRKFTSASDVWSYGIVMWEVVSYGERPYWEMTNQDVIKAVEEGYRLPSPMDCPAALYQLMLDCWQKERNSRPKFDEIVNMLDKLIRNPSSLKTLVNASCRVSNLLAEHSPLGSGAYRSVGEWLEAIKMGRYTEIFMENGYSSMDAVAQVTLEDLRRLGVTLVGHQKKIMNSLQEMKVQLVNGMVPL
As to conditions: Protein EPHA5; average of three replicates. In short, it runs like this:
as §1

In test [5] the target is T5, ~100 representative kinases (Homo sapiens, UniProt Q8TF76).
T5 construct: Recombinant protein kinase domains with a concentration of 2 μM
T5 sequence (Q8TF76 1-798): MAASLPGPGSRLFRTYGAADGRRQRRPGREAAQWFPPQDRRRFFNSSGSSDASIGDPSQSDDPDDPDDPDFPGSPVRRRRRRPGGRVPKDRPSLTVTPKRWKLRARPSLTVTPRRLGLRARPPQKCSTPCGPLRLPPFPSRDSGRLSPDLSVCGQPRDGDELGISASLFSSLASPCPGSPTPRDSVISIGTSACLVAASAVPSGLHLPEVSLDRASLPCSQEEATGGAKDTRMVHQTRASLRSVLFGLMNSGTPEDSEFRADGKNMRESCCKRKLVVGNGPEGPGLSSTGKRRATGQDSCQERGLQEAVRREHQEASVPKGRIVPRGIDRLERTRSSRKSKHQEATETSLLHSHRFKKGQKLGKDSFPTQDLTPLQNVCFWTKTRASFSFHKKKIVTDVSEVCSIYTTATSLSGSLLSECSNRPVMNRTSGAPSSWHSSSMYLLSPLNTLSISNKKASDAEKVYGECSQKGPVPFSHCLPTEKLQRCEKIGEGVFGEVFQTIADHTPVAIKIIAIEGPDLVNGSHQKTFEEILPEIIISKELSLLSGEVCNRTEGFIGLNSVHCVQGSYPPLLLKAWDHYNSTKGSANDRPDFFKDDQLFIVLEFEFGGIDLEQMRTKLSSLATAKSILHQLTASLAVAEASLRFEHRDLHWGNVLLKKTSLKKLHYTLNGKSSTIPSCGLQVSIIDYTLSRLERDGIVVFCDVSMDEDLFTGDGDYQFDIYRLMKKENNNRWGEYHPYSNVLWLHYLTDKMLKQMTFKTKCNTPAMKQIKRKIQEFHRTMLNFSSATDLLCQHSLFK
To be noted: protein GSG2; average of three replicates. In outline: as §1

For test [6], the target named is T6, ~100 representative kinases (Homo sapiens, UniProt Q9UKI8).
T6 construct: Recombinant protein kinase domains with a concentration of 2 μM
T6 sequence (Q9UKI8 1-766): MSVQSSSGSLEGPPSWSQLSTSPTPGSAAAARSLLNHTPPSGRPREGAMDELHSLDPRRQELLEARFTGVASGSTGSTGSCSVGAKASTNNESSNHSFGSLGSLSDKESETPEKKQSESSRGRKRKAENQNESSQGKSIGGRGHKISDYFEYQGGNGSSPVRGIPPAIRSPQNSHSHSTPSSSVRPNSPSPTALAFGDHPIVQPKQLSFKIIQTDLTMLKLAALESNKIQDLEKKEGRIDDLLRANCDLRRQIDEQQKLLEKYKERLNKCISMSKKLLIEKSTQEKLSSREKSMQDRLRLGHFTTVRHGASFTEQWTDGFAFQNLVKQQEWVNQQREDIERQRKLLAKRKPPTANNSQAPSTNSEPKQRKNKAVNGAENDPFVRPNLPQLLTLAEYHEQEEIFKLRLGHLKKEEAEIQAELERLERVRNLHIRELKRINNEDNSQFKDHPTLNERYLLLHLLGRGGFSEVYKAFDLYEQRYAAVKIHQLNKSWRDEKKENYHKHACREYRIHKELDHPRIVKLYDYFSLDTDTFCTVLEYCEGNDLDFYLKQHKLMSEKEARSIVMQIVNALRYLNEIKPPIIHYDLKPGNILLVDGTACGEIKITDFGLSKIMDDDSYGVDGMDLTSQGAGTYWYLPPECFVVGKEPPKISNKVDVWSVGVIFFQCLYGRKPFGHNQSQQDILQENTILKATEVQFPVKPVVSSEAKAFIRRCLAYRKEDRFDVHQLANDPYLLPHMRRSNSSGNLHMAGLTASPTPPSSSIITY
To be noted: Protein TLK1; DSF; average of three replicates. In short, it runs like this: as §1

The values below come from paper PMC12136037, “Type II kinase inhibitors that target Parkinson’s disease–associated LRRK2” (Science Advances, 2025).

T2 sequence (O96013 whole entry, the tested form may be a part): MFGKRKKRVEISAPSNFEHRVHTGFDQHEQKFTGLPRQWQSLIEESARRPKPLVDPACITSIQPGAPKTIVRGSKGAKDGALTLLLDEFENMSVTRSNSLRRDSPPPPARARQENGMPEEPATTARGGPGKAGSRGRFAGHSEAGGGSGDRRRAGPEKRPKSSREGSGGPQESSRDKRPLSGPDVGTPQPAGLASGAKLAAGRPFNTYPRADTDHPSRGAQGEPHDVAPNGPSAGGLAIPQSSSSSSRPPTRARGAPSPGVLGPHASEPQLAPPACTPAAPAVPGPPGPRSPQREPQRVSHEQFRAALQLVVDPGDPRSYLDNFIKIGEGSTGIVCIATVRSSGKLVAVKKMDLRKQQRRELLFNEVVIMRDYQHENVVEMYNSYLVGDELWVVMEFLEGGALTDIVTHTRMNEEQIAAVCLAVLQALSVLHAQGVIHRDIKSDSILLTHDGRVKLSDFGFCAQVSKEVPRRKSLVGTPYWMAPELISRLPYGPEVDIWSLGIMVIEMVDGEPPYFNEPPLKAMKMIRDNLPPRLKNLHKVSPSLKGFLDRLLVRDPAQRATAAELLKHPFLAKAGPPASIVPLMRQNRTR

As for `O=C(Nc1cccc(-c2c[nH]c3ncnc(N4CCOCC4)c23)c1)C1(C(=O)Nc2cc(Br)c(F)cc2F)CC1` [Compound 25], the dTm in test [1] is 0.00 K; in test [2] it was 0.88 K; in test [3], -1.75 K; in test [4] it was 1.57 K; in test [5], -3.43 K; in test [6] it was 1.57 K.
With `CC(C)(C)c1cc(NC(=O)Nc2cccc(-c3c[nH]c4ncnc(N5CCOCC5)c34)c2)n(-c2ccc3ncccc3c2)n1` [Compound 28], the dTm in test [1] is on record as 9.72 K; in test [2], 0.80 K; in test [3], 0.00214 K; in test [4] it was 9.59 K; in test [5], -2.39 K; in test [6], 0.24 K.
On to `COc1cc(C(=O)N2CCOCC2)c(F)cc1Nc1nc(N(C)C)c2c(Cl)c[nH]c2n1` [Compound 36], for which the dTm in test [1] is listed as 10.98 K; in test [2] it was -0.14 K; in test [3] it was -0.44 K; in test [4], -0.96 K; in test [5], -1.75 K; in test [6], -1.95 K.
With `COc1cc2c(Oc3ccc(NC(=O)C4(C(=O)Nc5ccc(F)cc5)CC4)cc3F)ccnc2cc1OCCCN1CCOCC1` [Foretinib, reference compound], the dTm in test [1] worked out at 3.63 K; in test [2], 0.34 K; in test [3] it was 0.08 K; in test [4], 11.59 K; in test [5] it was 1.08 K; in test [6] it was 0.36 K.
Turning to `Cc1ccc(-n2nc(C(C)(C)C)cc2NC(=O)Nc2cccc(-c3c[nH]c4nc(Cl)nc(N5CCOCC5)c34)c2)cc1` [Compound 30], the dTm in test [1] is -0.13 K; in test [2] it was 0.13 K; in test [3] it was 0.13 K; in test [4] it was 0.15 K; in test [5] it was -1.55 K; in test [6] it was -1.50 K.
For `CC(C)(C)c1cccc(NC(=O)C2(C(=O)Nc3cccc(-c4c[nH]c5ncnc(N6CCOCC6)c45)c3)CC2)c1` [Compound 22], the dTm in test [1] is given as 0.00 K; in test [2], 0.76 K; in test [3] it was -1.08 K; in test [4], 2.41 K; in test [5] it was -2.85 K; in test [6], 0.35 K.
With `COc1ccc(NC(=O)C2(C(=O)Nc3cccc(-c4c[nH]c5ncnc(N6CCOCC6)c45)c3)CC2)cc1` [Compound 16], the dTm in test [1] is 2.09 K; in test [2], -0.80 K; in test [3], -0.51 K; in test [4], -0.30 K; in test [5], -0.39 K; in test [6], -1.11 K.
Regarding `CC(=O)N1CCN(c2nc(Cl)nc3[nH]cc(-c4cccc(NC(=O)Nc5cc(C(C)(C)C)nn5-c5ccc(C)cc5)c4)c23)CC1` [Compound 31], the dTm in test [1] is given as 2.85 K; in test [2], 0.48 K; in test [3], -0.27 K; in test [4] it was 1.56 K; in test [5], -3.39 K; in test [6] it was -1.67 K.
Turning to `Cc1cc(NC(=O)C2(C(=O)Nc3ccc(F)cc3)CC2)cc(-c2c[nH]c3ncnc(N4CCOCC4)c23)c1` [Compound 6], the dTm in test [1] was 0.00 K; in test [2], 0.99 K; in test [3], -2.13 K; in test [4], 2.48 K; in test [5], -1.48 K; in test [6], 1.18 K.
Take `O=C(Nc1cccc(-c2c[nH]c3ncnc(N4CCOCC4)c23)c1)C1(C(=O)Nc2ccc(F)c(Br)c2F)CC1` [Compound 26]: the dTm is on record as 0.00 K in test [1]; 0.78 K in test [2]; -2.66 K in test [3]; 1.29 K in test [4]; -2.00 K in test [5]; 1.63 K in test [6].
In the case of `O=C(Nc1cccc(-c2c[nH]c3ncnc(N4CCOCC4)c23)c1)C1(C(=O)Nc2cccc3c2CCC3)CC1` [Compound 11], the dTm in test [1] is 0.00 K; in test [2], 0.55 K; in test [3], -2.54 K; in test [4], -0.41 K; in test [5], -2.96 K; in test [6], 1.55 K.
As for `O=C(Nc1ccc(F)cc1)C1(C(=O)Nc2cccc(-c3c[nH]c4ncnc(N5CCOCC5)c34)c2)CC1` [Compound 2], the dTm in test [1] was 6.81 K; in test [2] it was 0.12 K; in test [3] it was -0.56 K; in test [4], 3.27 K; in test [5] it was -0.43 K; in test [6] it was -1.13 K.
On to `CCSc1nc(NC)c2c(-c3cccc(NC(=O)Nc4cc(C(C)(C)C)nn4-c4ccc(C)cc4)c3)c[nH]c2n1` [Compound 32], for which the dTm in test [1] is given as 6.20 K; in test [2], 0.61 K; in test [3], -0.0148 K; in test [4], 0.04 K; in test [5] it was 0.63 K; in test [6] it was -0.57 K.
With `O=C(Nc1cccc(-c2c[nH]c3ncnc(N4CCOCC4)c23)c1)C1(C(=O)Nc2ccc(F)c(Br)c2)CC1` [Compound 19], the dTm in test [1] is given as 0.00 K; in test [2], 1.11 K; in test [3] it was -0.18 K; in test [4] it was 2.70 K; in test [5] it was -2.45 K; in test [6], 2.03 K.
On to `COc1cc(NC(=O)C2(C(=O)Nc3cccc(-c4c[nH]c5ncnc(N6CCOCC6)c45)c3)CC2)ccc1F` [Compound 21], for which the dTm in test [1] is 8.47 K; in test [2] it was -0.79 K; in test [3], -1.04 K; in test [4], 0.44 K; in test [5] it was -2.20 K; in test [6], -0.77 K.
Take `Cc1cc(NC(=O)C2(C(=O)Nc3cccc(-c4c[nH]c5ncnc(N6CCOCC6)c45)c3)CC2)ccc1F` [Compound 20]: the dTm is on record as 10.15 K in test [1]; -0.11 K in test [2]; -1.06 K in test [3]; 3.44 K in test [4]; -3.30 K in test [5]; -0.17 K in test [6].
